Read-outs that look alike come from different tables or passages of the source.
How the values were obtained:
5HT2B receptors = target: T1, 5HT2B receptors (Homo sapiens, UniProt P41595); assay: Human 5-HT2B functional assay in CHO-K1 cells (calcium flux, FLIPR); assay type: cell-based; settings: for Emax: CHO-K1, read-out: Emax (%), 5-HT2B Agonist Activity
T1 construct: expressed in transfected cells; host or cells: CHO-K1 cells
Summary of the method: (§1)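 Frozen CHO-K1 cells over-expressing receptor, serum-starved overnight, loaded with Ca4 dye plus 2.5 mM probenecid for 60 min at room temperature. FLIPR fluorescence (ex 480/em 530 nm, 25° C) recorded 3 min after compound addition; 6-point 1:10 series from 10 μM, 0.2% DMSO. Response normalized to serotonin, 4-parameter fit gives EC50; Emax as % of serotonin.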

5HT2C receptors = target: T2, 5HT2C receptors (Homo sapiens, UniProt P28335); assay: Human 5-HT2C functional assay in CHO-K1 cells (calcium flux, FLIPR); assay type: cell-based; design: expressed in transfected cells; host or cells: CHO-K1 cells
T2 sequence (P28335 33-458): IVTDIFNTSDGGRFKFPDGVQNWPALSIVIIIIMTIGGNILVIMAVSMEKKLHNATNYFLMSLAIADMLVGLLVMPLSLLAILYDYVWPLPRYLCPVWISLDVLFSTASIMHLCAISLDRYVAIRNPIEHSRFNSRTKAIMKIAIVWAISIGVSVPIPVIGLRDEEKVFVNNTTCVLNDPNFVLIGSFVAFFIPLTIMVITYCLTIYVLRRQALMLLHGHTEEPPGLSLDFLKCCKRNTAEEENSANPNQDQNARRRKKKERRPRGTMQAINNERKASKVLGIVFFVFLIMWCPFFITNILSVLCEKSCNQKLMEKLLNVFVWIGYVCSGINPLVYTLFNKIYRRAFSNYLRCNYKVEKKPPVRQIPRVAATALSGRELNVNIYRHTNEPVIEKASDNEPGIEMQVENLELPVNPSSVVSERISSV
Summary of the method: as §1

[1] = CHO-K1 cells over-expressing 5HT2B, calcium flux, read-out: EC50 (μM), 5-HT2B Agonist Activity
[2] = CHO-K1 cells over-expressing 5HT2C, calcium flux, read-out: EC50 (μM), 5-HT2c Agonist Activity
[3] = CHO-K1 cells, percentage relative to the effect of serotonin, read-out: Emax (%), 5-HT2c Agonist Activity
[4] = CHO-K1, read-out: Emax (%), 5-HT2c Agonist Activity
[5] = CHO-K1, read-out: Emax (%), 5-HT2c Agonist Activity, CHO-K1 cells, percentage relative to the effect of serotonin

T1 sequence (P41595 whole entry): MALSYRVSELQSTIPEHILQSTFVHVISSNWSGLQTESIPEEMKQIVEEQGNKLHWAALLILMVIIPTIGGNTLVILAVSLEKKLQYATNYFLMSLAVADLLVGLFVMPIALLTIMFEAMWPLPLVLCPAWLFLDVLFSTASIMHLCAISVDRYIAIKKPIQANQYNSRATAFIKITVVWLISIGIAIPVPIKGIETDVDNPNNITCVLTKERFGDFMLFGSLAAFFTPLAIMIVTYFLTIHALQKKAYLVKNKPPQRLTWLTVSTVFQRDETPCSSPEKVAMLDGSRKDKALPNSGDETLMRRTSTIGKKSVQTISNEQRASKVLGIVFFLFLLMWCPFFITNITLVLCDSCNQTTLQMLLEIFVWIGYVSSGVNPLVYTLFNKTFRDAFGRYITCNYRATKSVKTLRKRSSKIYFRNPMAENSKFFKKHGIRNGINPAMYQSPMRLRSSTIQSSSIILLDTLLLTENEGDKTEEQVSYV

Compound	EC50 (5HT2B receptors; [1]) [µM]	EC50 (5HT2C receptors; [2]) [µM]	Emax (5HT2C receptors; [3]) [%]	Emax (5HT2B receptors) [%]	Emax (5HT2C receptors; [4]) [%]	EC50 (5HT2B receptors) [µM]	EC50 (5HT2C receptors) [µM]	Emax (5HT2C receptors; [5]) [%]	Emax (%), 5-HT2c Agonist Activity (5HT2C receptors; CHO-K1 cells, percentage relative to the effect of serotonin) [%]
CS(=O)(=O)c1cccc(-c2cccc3c2OCC[C@H]2CNCCN32)c1 [Example 239, (4aS)-8-[3-(methylsulfonyl)phenyl]-2,3,4,4a,5,6-hexahydro-1H-pyrazino[2,1-d][1,5]benzoxazepine]	> 10	0.04	105	–	–	–	–	–	–
FCCN1CCN2c3ccccc3OCC[C@H]2C1 [Example 240, (4aS)-3-(2-fluoroethyl)-2,3,4,4a,5,6-hexahydro-1H-pyrazino[2,1-d][1,5]benzoxazepine]	1	0.04	–	10	90	–	–	–	–
COc1cccc2c1OCC[C@H]1CNCCN21 [Example 241, (4aS)-8-methoxy-2,3,4,4a,5,6-hexahydro-1H-pyrazino[2,1-d][1,5]benzoxazepine]	–	–	–	–	–	> 10	0.02	90	–
Cc1cccc2c1OCC[C@H]1CN(C)CCN21 [Example 242, (4aS)-3,8-dimethyl-2,3,4,4a,5,6-hexahydro-1H-pyrazino[2,1-d][1,5]benzoxazepine]	–	–	–	–	–	> 10	0.002	80	–
COc1ccc2c(c1)OCC[C@H]1CNCCN21 [Example 243, (4aS)-9-methoxy-2,3,4,4a,5,6-hexahydro-1H-pyrazino[2,1-d][1,5]benzoxazepine]	–	–	–	–	–	> 10	0.05	–	55
Cc1c(F)ccc2c1OCC[C@H]1CNCCN21 [Example 244]	–	–	–	15	–	0.03	0.0004	95	–
FCCN1CCN2c3cccc(F)c3OCC[C@H]2C1 [Example 245, (4aS)-8-fluoro-3-(2-fluoroethyl)-2,3,4,4a,5,6-hexahydro-1H-pyrazino[2,1-d][1,5]benzoxazepine]	0.2	0.009	–	20	95	–	–	–	–
Cc1cccc2c1OCC[C@H]1CN(CCF)CCN21 [Example 246, (4aS)-3-(2-fluoroethyl)-8-methyl-2,3,4,4a,5,6-hexahydro-1H-pyrazino[2,1-d][1,5]benzoxazepine]	> 10	0.007	–	–	95	–	–	–	–
c1cc(-c2ccncc2)c2c(c1)N1CCNC[C@@H]1CCO2 [Example 247, (4aS)-8-(pyridin-4-yl)-2,3,4,4a,5,6-hexahydro-1H-pyrazino[2,1-d][1,5]benzoxazepine]	–	–	–	–	–	> 10	0.007	85	–
c1cncc(-c2cccc3c2OCC[C@H]2CNCCN32)c1 [Example 248, (4aS)-8-(pyridin-3-yl)-2,3,4,4a,5,6-hexahydro-1H-pyrazino[2,1-d][1,5]benzoxazepine]	–	–	–	–	–	> 10	0.0007	85	–
c1csc(-c2cccc3c2OCC[C@H]2CNCCN32)c1 [Example 249, (4aS)-8-(2-thienyl)-2,3,4,4a,5,6-hexahydro-1H-pyrazino[2,1-d][1,5]benzoxazepine]	> 10	0.0001	75	–	–	–	–	–	–
c1cc(-c2ccsc2)c2c(c1)N1CCNC[C@@H]1CCO2 [Example 250, (4aS)-8-(3-thienyl)-2,3,4,4a,5,6-hexahydro-1H-pyrazino[2,1-d][1,5]benzoxazepine]	> 10	0.0001	95	–	–	–	–	–	–
c1coc(-c2cccc3c2OCC[C@H]2CNCCN32)c1 [Example 251, (4aS)-8-(2-furyl)-2,3,4,4a,5,6-hexahydro-1H-pyrazino[2,1-d][1,5]benzoxazepine]	> 10	0.0001	90	–	–	–	–	–	–
[2H]c1cccc2c1OCC[C@H]1CNCCN21 [Example 254, (4aS)-(8-^2H)-2,3,4,4a,5,6-hexahydro-1H-pyrazino[2,1-d][1,5]benzoxazepine]	–	–	–	35	–	0.09	0.005	115	–
c1ccc2c(c1)OCC[C@@H]1CNCCN21 [Example 255, (4aR)-2,3,4,4a,5,6-hexahydro-1H-pyrazino[2,1-d][1,5]benzoxazepine]	–	–	–	70	–	0.09	0.001	95	–
Fc1ccc2c(c1)OCC[C@@H]1CNCCN21 [Example 256, (4aR)-9-fluoro-2,3,4,4a,5,6-hexahydro-1H-pyrazino[2,1-d][1,5]benzoxazepine]	–	–	–	80	–	0.06	0.001	90	–

Compound	EC50 (5HT2B receptors; [1]) [µM]	EC50 (5HT2C receptors; [2]) [µM]	Emax (5HT2C receptors; [3]) [%]	Emax (5HT2B receptors) [%]	Emax (5HT2C receptors; [4]) [%]	EC50 (5HT2B receptors) [µM]	EC50 (5HT2C receptors) [µM]	Emax (5HT2C receptors; [5]) [%]	Emax (%), 5-HT2c Agonist Activity (5HT2C receptors; CHO-K1 cells, percentage relative to the effect of serotonin) [%]
Cc1ccc2c(c1)N1CCNC[C@H]1CCO2 [Example 257, (4aR)-10-methyl-2,3,4,4a,5,6-hexahydro-1H-pyrazino[2,1-d][1,5]benzoxazepine]	–	–	–	60	–	0.02	0.001	90	–
Fc1ccc2c(c1)N1CCNC[C@H]1CCO2 [Example 258, (4aR)-10-fluoro-2,3,4,4a,5,6-hexahydro-1H-pyrazino[2,1-d][1,5]benzoxazepine]	–	–	–	80	–	0.007	0.01	80	–
Cc1ccc2c(c1)OCC[C@@H]1CNCCN21 [Example 259, (4aR)-9-methyl-2,3,4,4a,5,6-hexahydro-1H-pyrazino[2,1-d][1,5]benzoxazepine]	–	–	–	70	–	0.1	0.004	100	–
Clc1ccc2c(c1)OCC[C@@H]1CNCCN21 [Example 260, (4aR)-9-chloro-2,3,4,4a,5,6-hexahydro-1H-pyrazino[2,1-d][1,5]benzoxazepine]	–	–	–	90	–	0.03	0.0003	100	–
Clc1ccc2c(c1)N1CCNC[C@H]1CCO2 [Example 261, (4aR)-10-chloro-2,3,4,4a,5,6-hexahydro-1H-pyrazino[2,1-d][1,5]benzoxazepine]	–	–	–	70	–	0.03	0.0004	90	–
[2H]c1ccc2c(c1)N1CCNC[C@@H]1CCO2 [Example 262, (4aS)-(10-^2H)-2,3,4,4a,5,6-hexahydro-1H-pyrazino[2,1-d][1,5]benzoxazepine]	–	–	–	15	–	0.2	0.005	90	–
[2H]c1ccc2c(c1)OCC[C@H]1CNCCN21 [Example 263, (4aS)-(9-^2H)-2,3,4,4a,5,6-hexahydro-1H-pyrazino[2,1-d][1,5]benzoxazepine]	–	–	–	15	–	0.09	0.003	95	–
CC(C)N1CCN2c3ccccc3OCC[C@H]2C1 [Example 264, (4aS)-3-isopropyl-2,3,4,4a,5,6-hexahydro-1H-pyrazino[2,1-d][1,5]benzoxazepine]	> 10	0.9	–	–	–	–	–	50	–
FCC(CF)N1CCN2c3ccccc3OCC[C@H]2C1 [Example 265, (4aS)-3-(1,3-difluoropropan-2-yl)-2,3,4,4a,5,6-hexahydro-1H-pyrazino[2,1-d][1,5]benzoxazepine]	> 10	2	–	–	70	–	–	–	–
C[C@@H]1CN2c3ccccc3OCC[C@H]2CN1 [Example 266, (2R,4aS)-2-methyl-2,3,4,4a,5,6-hexahydro-1H-pyrazino[2,1-d][1,5]benzoxazepine]	–	–	–	15	–	0.5	0.1	70	–
[2H]c1cc2c(cc1[2H])N1CCNC[C@@H]1CCO2 [Example 267, (4aS)-(9,10-^2H2)-2,3,4,4a,5,6-hexahydro-1H-pyrazino[2,1-d][1,5]benzoxazepine]	–	–	–	20	–	0.2	0.005	90	–
CN1CCN2c3ccccc3OCC[C@@H]2C1 [Example 268, (4aR)-3-methyl-2,3,4,4a,5,6-hexahydro-1H-pyrazino[2,1-d][1,5]benzoxazepine]	–	–	–	50	–	0.2	0.01	95	–
FCCN1CCN2c3ccccc3OCC[C@@H]2C1 [Example 269, (4aR)-3-(2-fluoroethyl)-2,3,4,4a,5,6-hexahydro-1H-pyrazino[2,1-d][1,5]benzoxazepine]	0.6	0.09	–	50	90	–	–	–	–
Fc1cccc2c1OCC[C@@H]1CNCCN21 [Example 270, (4aR)-8-fluoro-2,3,4,4a,5,6-hexahydro-1H-pyrazino[2,1-d][1,5]benzoxazepine]	–	–	–	80	–	0.04	0.0009	90	–
C[C@H]1CN2c3ccccc3OCC[C@H]2CN1 [Example 271, (2S,4aS)-2-methyl-2,3,4,4a,5,6-hexahydro-1H-pyrazino[2,1-d][1,5]benzoxazepine]	–	–	–	–	–	> 10	0.1	50	–

— US8546377B2 (AbbVie Inc., priority 2009, dated 2013)
